Format in all cases: physicochemical
The nature of data set [1]: Exploration of solubility: 300 mg slurry in solvent (10 V) at 15~20° C. As to conditions: for solubility: 15 °C, organic solvent or mixture, thermodynamic from solid; for solubility / Solubility (mg/mL): 300 mg slurry at 15~20° C. The text has this: Exploration of Step 3: Amide Formation. Exploration of Product Solubility.
Exploration of the Solubility of 4 in Various Solvents.

Data set [2] is described as follows: Exploration of product stability in alkaline conditions. As to conditions: for Assay: 15~25° C. The text has this: Exploration of Product Stability in Alkaline Conditions.
Data set [3] can be described thus: Exploration of solvent for filtration: 5a slurry in solvent. As to conditions: 500 mg slurry, HCl (EtOH) charged, 15˜25° C. for 20 h. How it is done: Exploration of Solvent for Filtration.
Experiments were performed 15˜25° C. for 20 h.

Values after ≈ are worked out from the molar mass of the structure shown. Counter-ions that a name gives are not always drawn.

As a reminder, the solubility is the concentration that dissolves in the medium under given conditions. `COC(=O)CC[C@H](NC(=O)c1ccc(-n2ccnn2)cc1)C(=O)N1CCN(C)CC1` [Compound 3, methyl (4S)-4-[4-(1H-1,2,3-triazol-1-yl)benzoylamino]-5-(4-methylpiperazin-1-yl)-5-oxopentanoate]: the solubility in data set [1] (Acetonitrile (10 V)) is 29500 µg/mL (≈ 71.2 mM); in data set [1] (EtOAc (10 V)), 9000 µg/mL (≈ 21.7 mM); in data set [1] (EtOH (10 V)) it was 22500 µg/mL (≈ 54.3 mM); in data set [1] (IPA (10 V)), 14100 µg/mL (≈ 34 mM); in data set [1] (IPAc (10 V)) it was 4800 µg/mL (≈ 11.6 mM); in data set [1] (MTBE (10 V)), 600 µg/mL (≈ 1.45 mM). The solubility in data set [1] (THF (10 V)) came out at 84200 µg/mL (≈ 203 mM). Moreover, the figures for the “Solubility (mg/mL)” value in data set [1] (DCM (10 V)), in data set [1] (Heptane (10 V)) and in data set [1] (MeOH (10 V)) were “Dissolved completely”, “insoluble” and “Dissolved completely”, respectively. Also, the “solubility (conclusion)” value in data set [1] (in DCM, THF or MeOH) is recorded as “good solubility”. In addition, the Assay in data set [2] (1.0 g, pH 9-10 with 6M LiOH aqueous solution, 0 h) amounted to 1.0 g; in data set [2] (1.0 g, pH 9-10 with 6M LiOH aqueous solution, +10 h) it was 1.0 g; in data set [2] (1.0 g, pH 9-10 with 6M LiOH aqueous solution, +24 h (first)), 1.0 g; in data set [2] (1.0 g, pH 9-10 with 6M LiOH aqueous solution, +24 h (second)), 1.0 g; in data set [2] (1.0 g, pH 9-10 with 10 wt. % K2CO3 aqueous solution, 0 h), 1.0 g; in data set [2] (1.0 g, pH 9-10 with 10 wt. % K2CO3 aqueous solution, +10 h), 0.90 g. Also, the Assay in data set [2] (1.0 g, pH 9-10 with 10 wt. % K2CO3 aqueous solution, +24 h (first)) amounted to 0.87 g; in data set [2] (1.0 g, pH 9-10 with 10 wt. % K2CO3 aqueous solution, +24 h (second)), 0.87 g; in data set [2] (1.0 g, pH 9-10 with 10 wt. % Na2CO3 aqueous solution, 0 h), 1.0 g; in data set [2] (1.0 g, pH 9-10 with 10 wt. % Na2CO3 aqueous solution, +10 h), 0.99 g; in data set [2] (1.0 g, pH 9-10 with 10 wt. % Na2CO3 aqueous solution, +24 h (first)), 0.97 g; in data set [2] (1.0 g, pH 9-10 with 10 wt. % Na2CO3 aqueous solution, +24 h (second)), 0.99 g. Moreover, the Assay in data set [2] (1.0 g, pH 9-10 with 10 wt. % NaOH aqueous solution, 0 h) is listed as 1.0 g; in data set [2] (1.0 g, pH 9-10 with 10 wt. % NaOH aqueous solution, +10 h) it was 1.0 g; in data set [2] (1.0 g, pH 9-10 with 10 wt. % NaOH aqueous solution, +24 h (first)) it was 1.0 g; in data set [2] (1.0 g, pH 9-10 with 10 wt. % NaOH aqueous solution, +24 h (second)), 1.0 g; in data set [2] (1.1 g, pH 10-11 with NaOH aqueous solution (6N), 0 h), 0.7 g; in data set [2] (1.1 g, pH 10-11 with NaOH aqueous solution (6N), +7 h (after +20 h)), 0.4 g. Also, the Assay in data set [2] (1.1 g, pH 10-11 with NaOH aqueous solution (6N), +20 h) is on record as 0.5 g; in data set [2] (1.1 g, pH 10-11 with NaOH aqueous solution (6N), +24 h (first, after +7 h)) it was 0.3 g; in data set [2] (1.1 g, pH 10-11 with NaOH aqueous solution (6N), +24 h (second)) it was 0.2 g. The “stability (conclusion)” value in data set [2] (in the presence of K2CO3) is “relatively instable”; in data set [2] (pH>10 in basic aqueous solution), “not stable”; in data set [2] (weak basic aqueous solution, pH=9-10) it was “relatively stable”.

Consider `CN1CCN(C(=O)[C@H](CCC(=O)O)NC(=O)c2ccc(-n3ccnn3)cc2)CC1` [Compound 4, (4S)-4-[4-(1H-1,2,3-triazol-1-yl)benzoylamino]-5-(4-methylpiperazin-1-yl)-5-oxopentanoic Acid], for which the solubility in data set [1] (Acetonitrile (10 V)) was found to be 400 µg/mL (≈ 0.999 mM); in data set [1] (DCM (10 V)), 1000 µg/mL (≈ 2.5 mM); in data set [1] (EtOAc (10 V)), 400 µg/mL (≈ 0.999 mM); in data set [1] (EtOH (10 V)), 4000 µg/mL (≈ 9.99 mM); in data set [1] (IPA (10 V)), 900 µg/mL (≈ 2.25 mM); in data set [1] (IPAc (10 V)), 1000 µg/mL (≈ 2.5 mM). The solubility in data set [1] (MeOH (10 V)) is 37000 µg/mL (≈ 92.4 mM); in data set [1] (THF (10 V)), 1200 µg/mL (≈ 3 mM). The “stability in MeOH (conclusion of the solubility table)” value in data set [1] (MeOH) is recorded as “high stability”. Besides, the “solubility (conclusion)” value in data set [1] (other tested solvents (than MeOH)) is “lower solubility”.

On to `CCCCCCCCCCCCSC(=O)CC[C@H](NC(=O)c1ccc(-n2ccnn2)cc1)C(=O)N1CCN(C)CC1` [Compound 5a, dodecyl (4S)-4-[4-(1H-1,2,3-triazol-1-yl)benzoylamino]-5-(4-methyl-piperazin-1-yl)-5-oxopentanethioate Hydrochloride Salt], for which the “Result (solubility)” value in data set [3] (DMSO (20 V)) and in data set [3] (NMP (20 V)) was “Soluble” in each case.

Source of the values: patent US11390590B2, “Methods and processes for the preparation of KDM1A inhibitors” (Imago Biosciences, Inc., priority 2016, dated 2022).
